How the values were obtained:
[1] = system: β3 over β1- and β2-adrenoceptors; assay: Overall selectivity A×B from radioligand binding (β1, β2, β3) and functional β3 assay; design: species or system human; conditions: A=Ki(β1)/Ki(β3); B=Ki(β2)/EC50(β3); overall = A multiplied by B
Protocol: Selectivity for β3 over the other two adrenoceptors was thus defined as:
A) selectivity factor for β3 over β1=Ki(β1)/Ki(β3);
B) selectivity factor for β3 over β2=Ki(β2)/EC50(β3);
overall selectivity was determined as factor A) multiplied by factor B)
Membrane preparations containing human β1-, β2- or β3-adrenergic receptors were purchased from Euroscreen.
Determination of IC50 deployed a competition binding experiment where an unlabeled test compound competes with the radioligand for the receptor's binding site.
For competition binding experiments 0.1 μg/μL β3 membranes were pre-incubated with the respective compounds at r.t. for 10 minutes. The binding buffer consisted of 25 mM Hepes, 1 mM EDTA, 0.5% BSA pH 7.4. All incubation steps were done in a 96 well Masterblock PP/1 mL (Greiner), the total assay volume was 100 μL.
The reaction mixtures were transferred to a 96 well UnifilterGF/B filter plate (Millipore), pre-soaked in 0.5% BSA, using the PerkinElmer filtermate. Each well was washed with 8×1 mL ice cold binding buffer supplemented with 0.5M NaCl. The GF/B filter plates were dried for 5 min on the filtermate. To each well, 50 μL OptiPhase scintillation cocktail (PerkinElmer) was added and incubated at r.t. for 10 min.
Bound radioactivity was quantified in a Wallac-Microbeta plate reader (PerkinElmer). Each well was counted for 2 min in top-count mode.
For competition binding experiments 0.25 μg/well β1 or 0.5 μg/well β2 membranes were pre-incubated with the respective compounds at r.t. for 10 minutes. […] All incubation steps were done in a 96 well Masterblock PP/1 mL (Greiner), the total assay volume was 250 μL.
The reaction mixtures were transferred to a 96 well UnifilterGF/B filter plate (Millipore), pre-soaked in 0.5% PEI, using the PerkinElmer filtermate, Each well was wash with 8×1 mL ice cold binding buffer. The GF/B filter plates were dried for 5 min on the filtermate. To each well 50 μL OptiPhase scintillation cocktail (PerkinElmer) was added and incubated at r.t. for 10 min.
Bound radioactivity was quantified in a Wallac-Microbeta plate reader (PerkinElmer). Each well was counted for 2 min in top-count mode

[2] = molecular target: T1, human recombinant adrenergic β3 receptor (Homo sapiens, UniProt P13945); assay: Cyclic AMP accumulation assay (HTRF), agonist mode; type: cell-based; conditions: agonistic activity at β3-adrenoceptor, CHO-K1 β3 cells, cAMP
T1 construct: host or cells: CHO-K1
T1 sequence (P13945 whole entry): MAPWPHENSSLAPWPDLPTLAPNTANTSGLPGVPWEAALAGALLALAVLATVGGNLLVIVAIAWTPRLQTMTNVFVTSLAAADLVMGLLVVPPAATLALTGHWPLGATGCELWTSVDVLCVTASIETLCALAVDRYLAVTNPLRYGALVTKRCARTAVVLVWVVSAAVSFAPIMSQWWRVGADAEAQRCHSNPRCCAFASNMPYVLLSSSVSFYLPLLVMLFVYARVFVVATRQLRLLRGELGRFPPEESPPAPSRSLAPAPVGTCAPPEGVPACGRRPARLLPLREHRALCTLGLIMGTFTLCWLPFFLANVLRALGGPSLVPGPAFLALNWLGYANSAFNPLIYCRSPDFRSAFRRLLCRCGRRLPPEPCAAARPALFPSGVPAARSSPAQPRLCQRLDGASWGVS
Protocol: (Cyclic Amp Accumulation Assay)
Functional response of cells (agonistic or antagonistic) to the test compounds was tested by measurement of cyclic AMP formation. Therefore cyclic AMP was quantitatively determined by HTRF® (Homogeneous Time-Resolved Fluorescence) technology (Cisbio International) using a stable cell line CHO-K1 β3 expressing the human recombinant adrenergic β3 receptor (Euroscreen).
The CHO-K1 β3 cell line was maintained in Ham's F12 medium containing 10% fetal bovine serum, 400 μg/ml geneticin (G418), 100 U/mL penicillin and 100 μg/mL streptomycin (all PAA) at 37° C. and 5% CO2. Cells in mid-log phase, grown in media without antibiotics during 18 h prior to the experiment, were detached by gentle flushing with 2 ml PBS-EDTA pH 7.5 (Cambrex) and resuspended in 8 mL of medium without antibiotics. Cells were then counted, centrifuged in a 30 mL PP tube (Corning) at 2000 rpm for 1 min and resuspended in HBSS/20 mM HEPES/0.05% BSA buffer (all PAA) including 1 mM IBMX (Sigma). Cells were then dispensed at 3.2×10^5−3.6×10^5 cells/well in black 96-half well microtiter plates (Corning). After addition of the test compounds for dose response curves the plates were incubated for 10 min at room temperature.
cAMP HTRF® Kit reagents were then added as recommended by the manufacturer and plates were sealed with plate sealer. After 1 hour of incubation the plates were read in a Tecan Ultra Reader using the “multilabeling” option of Tecan Xfluor4 software with the following parameters, excitation filter 320 nm, mirror dichroic2, lag time 150 μs, integration time 500 μs, number of flashes 10, optimal gain and z-position. For measurement 1 an emission filter at 620 nm and for measurement 2 an emission filter at 665 nm was chosen.
EC50 value calculation for the agonist assay and IC50 value calculation for the antagonist assay, respectively, were performed with the MS Excel Solver function based on a four-parameter fit.

Row | selectivity [A x B] [1] | EC50 [2] [nM] | Compound
1 | +++ (A×B>1000) | 1 to 10 | Cc1nc(N2CCC(NCC(O)COc3ccc(O)c(CO)c3)CC2)c2ccsc2n1 (stereo not drawn) [Example 19, 4-(2-hydroxy-3-(1-(2-methylthieno[2,3-d]pyrimidin-4-yl)piperidin-4-ylamino)propoxy)-2-(hydroxymethyl)phenol]
2 | 0 (A×B<10) | > 100 | Cc1nc(N2CCC(NCC(O)COc3cccc(CO)c3)CC2)c2ccsc2n1 (stereo not drawn) [Example 38, 1-(3-(hydroxymethyl)phenoxy)-3-(1-(2-methylthieno[2,3-d]pyrimidin-4-yl)piperidin-4-ylamino)propan-2-ol]
3 | 0 (A×B<10) | > 100 | CN(CC(O)COc1ccc(O)cc1)C1CCN(c2ncnc3scc(-c4ccc(F)cc4)c23)CC1 (stereo not drawn) [Example 11, 4-(3-((1-(5-(4-fluorophenyl)thieno[2,3-d]pyrimidin-4-yl)piperidin-4-yl)(methyl)amino)-2-hydroxypropoxy)phenol]
4 | 0 (A×B<10) | > 100 | CCOC(=O)c1cc(OCC(O)CNC2CCN(c3ncnc4ccsc34)CC2)ccc1O (stereo not drawn) [Example 22, ethyl 2-hydroxy-5-(2-hydroxy-3-(1-(thieno[3,2-d]pyrimidin-4-yl)piperidin-4-ylamino)propoxy)benzoate]
5 | +++ (A×B>1000) | 1 to 10 | Cc1cc(C)nc(N2CCC(NCC(O)COc3ccc(O)c(CO)c3)CC2)n1 (stereo not drawn) [Example 24, 4-(3-(1-(4,6-dimethylpyrimidin-2-yl)piperidin-4-ylamino)-2-hydroxypropoxy)-2-(hydroxymethyl)phenol]
6 | + (A×B=10-100) | 11 to 100 | OCc1cccc(OCC(O)CNC2CCN(c3ncnc4scc(-c5ccc(F)cc5)c34)CC2)c1 (stereo not drawn) [Example 40, 1-(1-(5-(4-fluorophenyl)thieno[2,3-d]pyrimidin-4-yl)piperidin-4-ylamino)-3-(3-(hydroxymethyl)phenoxy)propan-2-ol]
7 | 0 (A×B<10) | > 100 | CCOC(=O)c1cc(OCC(O)CNC2CCN(c3ncnc4scc(-c5cccs5)c34)CC2)ccc1O (stereo not drawn) [Example 25, ethyl 2-hydroxy-5-(2-hydroxy-3-(1-(5-(thiophen-2-yl)thieno[2,3-d]pyrimidin-4-yl)piperidin-4-ylamino)propoxy)benzoate]
8 | 0 (A×B<10) | > 100 | COC(=O)c1ccc(OCC(O)CNC2CCN(c3ncnc4scc(-c5ccccc5)c34)CC2)cc1O (stereo not drawn) [Example 28, methyl 2-hydroxy-4-(2-hydroxy-3-(1-(5-phenylthieno[2,3-d]pyrimidin-4-yl)piperidin-4-ylamino)propoxy)benzoate]
9 | + (A×B=10-100) | > 100 | CN(CC(O)COc1cccc(CO)c1)C1CCN(c2ncnc3scc(-c4ccccc4)c23)CC1 (stereo not drawn) [Example 41, 1-(3-(hydroxymethyl)phenoxy)-3-(methyl(1-(5-phenylthieno[2,3-d]pyrimidin-4-yl)piperidin-4-yl)amino)propan-2-ol]
10 | + (A×B=10-100) | 1 to 10 | CCOC(=O)c1cc(O)ccc1OCC(O)CNC1CCN(c2ncnc3scc(-c4ccccc4)c23)CC1 (stereo not drawn) [Example 32, ethyl 5-hydroxy-2-(2-hydroxy-3-(1-(5-phenylthieno[2,3-d]pyrimidin-4-yl)piperidin-4-ylamino)propoxy)benzoate]
11 | 0 (A×B<10) | > 100 | CCOC(=O)c1cc(OCC(O)CNC2CCN(c3ncnc4scc(C)c34)CC2)ccc1O (stereo not drawn) [Example 17, ethyl 2-hydroxy-5-(2-hydroxy-3-(1-(5-methylthieno[2,3-d]pyrimidin-4-yl)piperidin-4-ylamino)propoxy)benzoate]
12 | 0 (A×B<10) | > 100 | CCOC(=O)c1cc(OCC(O)CNC2CCN(c3ncnc4scc(-c5ccccc5)c34)CC2)ccc1O (stereo not drawn) [Example 12]
13 | 0 (A×B<10) | > 100 | Cc1c(-c2ccccc2)sc2ncnc(N3CCC(NCC(O)COc4cccc(CO)c4)CC3)c12 (stereo not drawn) [Example 39, 1-(3-(hydroxymethyl)phenoxy)-3-(1-(5-methyl-6-phenylthieno[2,3-d]pyrimidin-4-yl)piperidin-4-ylamino)propan-2-ol]
14 | 0 (A×B<10) | 11 to 100 | Cc1csc2ncnc(N3CCC(NCC(O)COc4cccc(CO)c4)CC3)c12 (stereo not drawn) [Example 37, 1-(3-(hydroxymethyl)phenoxy)-3-(1-(5-methylthieno[2,3-d]pyrimidin-4-yl)piperidin-4-ylamino)propan-2-ol]
15 | +++ (A×B>1000) | 0.01 to 0.99 | OCc1cc(OCC(O)CNC2CCN(C3=NCNc4scc(-c5ccccc5)c43)CC2)ccc1O (stereo not drawn) [Example 14, 4-(2-hydroxy-3-(1-(5-phenyl-1,2-dihydrothieno[2,3-d]pyrimidin-4-yl)piperidin-4-ylamino)propoxy)-2-(hydroxymethyl)phenol]
16 | 0 (A×B<10) | 11 to 100 | Cc1cc(C)nc(N2CCC(NCC(O)COc3ccc(O)cc3)CC2)n1 (stereo not drawn) [Example 8, 4-(3-(1-(4,6-dimethylpyrimidin-2-yl)piperidin-4-ylamino)-2-hydroxypropoxy)phenol]
17 | 0 (A×B<10) | > 100 | COC(=O)c1ccc(O)cc1OCC(O)CNC1CCN(c2ncnc3scc(-c4ccccc4)c23)CC1 (stereo not drawn) [Example 34, methyl 4-hydroxy-2-(2-hydroxy-3-(1-(5-phenylthieno[2,3-d]pyrimidin-4-yl)piperidin-4-ylamino)propoxy)benzoate]
18 | 0 (A×B<10) | > 100 | Cc1c(-c2ccccc2)sc2ncnc(N3CCC(N(C)CC(O)COc4cccc(CO)c4)CC3)c12 (stereo not drawn) [Example 42, 1-(3-(hydroxymethyl)phenoxy)-3-(methyl(1-(5-methyl-6-phenylthieno[2,3-d]pyrimidin-4-yl)piperidin-4-yl)amino)propan-2-ol]
19 | 0 (A×B<10) | > 100 | CCOC(=O)c1cc(OCC(O)CNC2CCN(c3ncnc4sc(-c5ccccc5)c(C)c34)CC2)ccc1O (stereo not drawn) [Example 20, ethyl 2-hydroxy-5-(2-hydroxy-3-(1-(5-methyl-6-phenylthieno[2,3-d]pyrimidin-4-yl)piperidin-4-ylamino)propoxy)benzoate]
20 | + (A×B=10-100) | > 100 | OCc1ccc(OCC(O)CNC2CCN(c3ncnc4scc(-c5ccc(F)cc5)c34)CC2)cc1 (stereo not drawn) [Example 44, 1-(1-(5-(4-fluorophenyl)thieno[2,3-d]pyrimidin-4-yl)piperidin-4-ylamino)-3-(4-(hydroxymethyl)phenoxy)propan-2-ol]
21 | ++ (A×B=101-1000) | 11 to 100 | Cc1nc(N2CCC(NCC(O)COc3ccc(O)cc3)CC2)c2ccsc2n1 (stereo not drawn) [Example 5, 4-(2-hydroxy-3-(1-(2-methylthieno[2,3-d]pyrimidin-4-yl)piperidin-4-ylamino)propoxy)phenol]

From patent US8207174B2, “Aryloxypropanolamines, methods of preparation therof and use of aryloxypropanolamines as medicaments” (4SC AG, priority 2007, dated 2012)
